# Experimental data published in article PMC11651181, “Discovery of 6α-Thiazolylcarboxamidonaltrexamine Derivative (NTZ) as a Potent and Central Nervous System Penetrant Opioid Receptor Modulator with Drug-like Properties for Potential Treatment of Opioid Use Disorder” (ACS Pharmacology & Translational Science, 2024).
# Where a name gives a salt, the structure may show the parent alone.
# Assays:
# KOR = biological target: T1, KOR (Mus musculus, UniProt P33534); experiment: KOR [35S]GTPγS functional assay; format: biochemical
# T1 construct: expressed in transfected cells; host or cells: CHO (KOR-CHO), membrane preparation
# Protocol: The [^35S]GTPγS functional assay was used to assess the efficacy of compounds at the MOR, KOR, and DOR. In this assay, 10 μg of MOR-CHO/KOR-CHO/DOR-CHO membrane protein was incubated in 500 μL of TME with 100 mM NaCl, 20 μM GDP, 0.1 nM [^35S]GTPγS, and varying concentrations of the compound for 1.5 h in a 30 °C water bath. Protein concentration was adjusted using the Bradford protein assay. […] After incubation, bound radioactivity was separated by filtration through GF/B glass fiber filters and measured by liquid scintillation counting. All assays were performed in duplicate and repeated at least three times. Net stimulated [35S]GTPγS binding was calculated as agonist-stimulated minus basal binding.
# CYP1A2 = biological target: T2, CYP1A2 (Homo sapiens, UniProt P05177); experiment: Cytochrome P450 inhibition assay, CYP1A2; format: in vitro ADME
# T2 construct: Eurofins Panlabs, Inc. (contract laboratory)
# T2 sequence (P05177 1-516): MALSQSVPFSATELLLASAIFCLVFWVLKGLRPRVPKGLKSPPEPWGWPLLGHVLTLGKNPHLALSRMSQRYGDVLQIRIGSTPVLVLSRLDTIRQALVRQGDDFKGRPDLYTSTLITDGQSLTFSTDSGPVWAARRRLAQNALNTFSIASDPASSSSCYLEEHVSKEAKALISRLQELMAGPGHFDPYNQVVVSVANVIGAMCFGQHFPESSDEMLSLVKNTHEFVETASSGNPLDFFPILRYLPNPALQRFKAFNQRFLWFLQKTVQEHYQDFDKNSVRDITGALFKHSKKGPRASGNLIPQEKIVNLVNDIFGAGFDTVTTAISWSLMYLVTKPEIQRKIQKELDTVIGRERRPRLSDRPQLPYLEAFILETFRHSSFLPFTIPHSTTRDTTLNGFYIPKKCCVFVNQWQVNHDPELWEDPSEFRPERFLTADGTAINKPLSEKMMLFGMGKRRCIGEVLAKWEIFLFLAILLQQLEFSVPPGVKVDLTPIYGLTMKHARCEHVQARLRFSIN
# Protocol: (§1) The ADMET assessment including the hERG inhibitory activity, plasma protein binding, in vitro metabolic stability profile, CYP inhibitory effect and mutagenic evaluation were conducted by Eurofins Panlabs, Inc.[21],[61],[69]−[71]
# CYP2C9 = biological target: T3, CYP2C9 (Homo sapiens, UniProt P11712); experiment: Cytochrome P450 inhibition assay, CYP2C9; format: in vitro ADME
# T3 construct: Eurofins Panlabs, Inc. (contract laboratory)
# Protocol: as §1
# CYP2C19 = biological target: T4, CYP2C19 (Homo sapiens, UniProt P33261); experiment: Cytochrome P450 inhibition assay, CYP2C19; format: in vitro ADME
# T4 construct: Eurofins Panlabs, Inc. (contract laboratory)
# Protocol: as §1
# T4 sequence (P33261 whole entry): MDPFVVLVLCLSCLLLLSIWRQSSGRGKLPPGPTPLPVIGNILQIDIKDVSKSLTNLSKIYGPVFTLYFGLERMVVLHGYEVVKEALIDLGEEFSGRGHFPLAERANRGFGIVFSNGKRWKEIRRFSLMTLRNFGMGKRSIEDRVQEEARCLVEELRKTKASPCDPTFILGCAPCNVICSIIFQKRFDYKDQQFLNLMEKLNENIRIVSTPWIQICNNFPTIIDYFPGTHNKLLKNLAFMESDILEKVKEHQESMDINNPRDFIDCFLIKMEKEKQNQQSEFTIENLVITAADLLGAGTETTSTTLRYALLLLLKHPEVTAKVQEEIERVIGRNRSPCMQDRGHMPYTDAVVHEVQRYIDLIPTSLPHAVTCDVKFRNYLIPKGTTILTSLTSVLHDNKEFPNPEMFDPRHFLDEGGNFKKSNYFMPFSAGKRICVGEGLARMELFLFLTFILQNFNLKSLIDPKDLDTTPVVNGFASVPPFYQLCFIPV
# T3 sequence (P11712 whole entry): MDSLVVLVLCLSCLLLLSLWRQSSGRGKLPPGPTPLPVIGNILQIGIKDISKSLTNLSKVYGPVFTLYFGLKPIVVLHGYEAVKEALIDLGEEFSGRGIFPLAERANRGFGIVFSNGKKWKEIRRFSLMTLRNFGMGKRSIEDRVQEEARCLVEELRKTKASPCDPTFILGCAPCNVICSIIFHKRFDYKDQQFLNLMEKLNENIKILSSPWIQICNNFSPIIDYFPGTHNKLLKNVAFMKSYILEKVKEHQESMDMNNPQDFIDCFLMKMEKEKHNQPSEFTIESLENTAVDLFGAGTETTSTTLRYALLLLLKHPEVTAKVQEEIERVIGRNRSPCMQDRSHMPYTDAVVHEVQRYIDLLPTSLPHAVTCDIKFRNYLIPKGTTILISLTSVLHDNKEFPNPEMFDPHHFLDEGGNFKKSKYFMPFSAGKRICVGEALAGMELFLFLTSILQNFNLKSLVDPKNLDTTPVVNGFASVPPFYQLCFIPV
# T1 sequence (P33534 whole entry): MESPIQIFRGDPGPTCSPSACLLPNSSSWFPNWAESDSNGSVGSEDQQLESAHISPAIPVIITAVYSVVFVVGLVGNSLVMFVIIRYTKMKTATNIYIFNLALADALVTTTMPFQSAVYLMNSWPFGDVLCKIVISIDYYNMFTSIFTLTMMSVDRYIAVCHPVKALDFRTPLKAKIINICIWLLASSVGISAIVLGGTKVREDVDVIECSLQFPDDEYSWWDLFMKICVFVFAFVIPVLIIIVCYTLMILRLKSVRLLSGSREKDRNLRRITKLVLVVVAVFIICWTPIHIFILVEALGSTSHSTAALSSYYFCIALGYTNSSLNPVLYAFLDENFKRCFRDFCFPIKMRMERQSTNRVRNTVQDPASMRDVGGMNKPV
compound,measurement,setting,value
"O=C(N[C@H]1CC[C@@]2(O)[C@H]3Cc4ccc(O)c5c4[C@@]2(CCN3CC2CC2)[C@H]1O5)c1nccs1 [Compound 6, 17-Cyclopropylmethyl-3,14β-dihydroxy-4,5α-epoxy-6α-(2′-thiazolylcarboxamido)-morphinan hydrochloride]",EC50,KOR,3.83 ± 0.62 nM
same,Emax,"KOR; relative to 3 μM U50488H, mean ± SEM, read-out: KOR [35S]GTPγS binding % Emax of U50488H",23.5 ± 2.03%
same,inhibition at 10 µM,CYP1A2; 1.0E-05 M,7.4%
same,inhibition at 100 nM,CYP1A2; 1.0E-07 M,11.4%
same,inhibition at 10 µM,CYP2C9; 1.0E-05 M,16.3%
same,inhibition at 100 nM,CYP2C9; 1.0E-07 M,0.6%
same,inhibition at 10 µM,CYP2C19; 1.0E-05 M,78.4%
same,inhibition at 100 nM,CYP2C19; 1.0E-07 M,13.2%
